In paper PMC9295122, “Sialic Acid Derivatives Inhibit SiaT Transporters and Delay Bacterial Growth” (ACS Chemical Biology, 2022):
“Also recorded” adds a separate entry of the source.

Key:
S. aureus COL = experiment: Growth in carbon-limited MM with inhibitor only, S. aureus; assay type: cell-based, Staphylococcus aureus; settings: MM with casamino acids, compound 0.5 mM
Procedure: We first addressed whether these bacteria were able to catabolize the inhibitors and potentially use them as a carbon source for growth. Each strain was grown in carbon-limited defined minimal media (MM), without any carbon source other than sodium citrate for P. mirabilis and casamino acids for S. aureus, and supplemented with 3e and 3f. […] With these promising results, bacterial growth assays were performed in MM supplemented with Neu5Ac at a concentration of 3.2 mM and with 0.5 mM of compounds 3e and 3f (Figure 6a,b). The lag phase duration was determined as the time for the initial population density to increase twofold (see the horizontal dashed lines in Figure 6a,b). The effects were significant in the case of S. aureus, where a delayed growth of 4.4 and 9.4 h (P < 0.001) for compounds 3e and 3f, respectively, was observed. In the case of P. mirabilis, compound 3e indicated a delay in growth (3 h, P = 0.06), while no effect was recorded for compound 3f.
Figure S4. S. aureus COL (A) and P. mirabilis HI4320 (B) grown in defined carbon-limited minimal media (dotted line), with the addition of compound 3e (0.5 mM, solid line) or compound 3f (0.5 mM, dashed line). Average values of two biological replicates (n=2) each including two technical replicates are presented.
(1 picture or pasted object on this page, not shown here)

[1] = test system: E. coli JW3193 ΔNanT expressing SaSiaT; experiment: Growth of E. coli JW3193 ΔNanT expressing SaSiaT; assay type: cell-based, Escherichia coli; settings: for effect on growth on sialic acid: 0.5 mM sialic acid + 1 mM inhibitor; for growth with inhibitor as only carbon source: 1 mM inhibitor
From the text: To further investigate bacterial growth inhibition, we employed a model system of E. coli JW3193 ΔNanT expressing the SaSiaT and PmSiaT transporters. We designed these experiments to test if compounds 3e and 3f could inhibit the Neu5Ac transport in vivo because, without an active sialic acid transporter, E. coli JW3193 ΔNanT cannot grow on Neu5Ac.[16],[21]
For the bacterial growth experiments, the pJ422-01 plasmid containing the relevant SiaT or NanT gene was transformed into the E. coli JW3193 ΔnanT strain.[21] Throughout the experiments, strains containing the pJ422-01 plasmid were grown in media supplemented with 25 μg/mL Zeocin. E. coli BW25113, empty E. coli JW3193, and E. coli JW3193 with pJ422-01 containing the NanT gene were also used as controls. Strains were initially plated out from glycerol stocks before a single colony was picked and grown overnight in low salt LB media at 37 °C, with shaking at 180 rpm. Overnight cultures were diluted to an OD600 of 0.05 using low salt LB [supplemented with 1 mM isopropyl β-D-1-thiogalactopyranoside (IPTG)], before they were incubated at 37 °C, with shaking at 250 rpm, until they reached an OD600 of 0.3. At this point, 5 mL of each culture was centrifuged at 6000g for 5 min at 25 °C. The supernatants were removed and the cell pellets were resuspended in 5 mL of M9 MM without glucose prior to being centrifuged again at 6000g for 5 min at 25 °C. This wash step was repeated twice more before cells were resuspended to an OD600 of 0.5 in M9 MM without glucose. A Corning Costar Flat Bottom 96 Well TC-treated microplate was set up with 180 μL of M9 MM containing 1 mM IPTG (for the pJ422-01 strains) and either 5 mM glucose, 0.5 mM sialic acid, and 0.5 mM sialic acid with 1 mM of either inhibitor, or 1 mM of either inhibitor as a carbon source. To the 180 μL of media, 20 μL of each culture were added to the plate (OD600 of 0.05), before it was loaded into a FLUOstar Omega microplate reader (BMG Labtech). Growth was recorded at 600 nm every 10 min at 37 °C, with shaking at 300 rpm. Growth curves represent the mean and standard deviation of measurement from triplicate measurements (glucose/no carbon source in duplicate).
Fig. S5. Growth of E. coli JW3193 ΔNanT expressing the SaSiaT and PmSiaT transporters from a plasmid and using various carbon sources and in the presence or absence of inhibitors, 3e and 3f. (A) SaSiaT is expressed from a plasmid in the E. coli strain JW3193 ΔNanT, where the native sialic acid transporter (NanT) is deleted. The strain grows normally when in media with glucose (black line). There is no growth in the absence of any carbon source (grey line). In the presence of sialic acid at 0.5 mM the strain grows to an OD of ~0.5 (red line), showing that the transporter is functional. There is no growth in the […]

| Compound | ability to catabolize compound (growth vs MM only) (S. aureus COL) | effect on growth on sialic acid [1] | growth with inhibitor as only carbon source [1] |
| --- | --- | --- | --- |
| CC(=O)NC1C(OCc2cc(F)cc(F)c2)CC(O)(C(=O)O)OC1C(O)C(O)CO (stereo not drawn) [Compound 3e] | no ability to catabolize | no effect on growth; also recorded: neither inhibitor seemed to alter bacterial growth | no growth |
| CC(=O)NC1C(OCc2cc(Br)cc(Br)c2)CC(O)(C(=O)O)OC1C(O)C(O)CO (stereo not drawn) [Compound 3f] | no ability to catabolize | no effect on growth; also recorded: neither inhibitor seemed to alter bacterial growth | no growth |
